According to US9000022B2 (Exelixis Patent Company LLC, priority 2005, dated 2015):

Each molecule was assayed on LXRα and/or LXRβ (assay: Co-transfection assay (LXRE luciferase reporter, CV-1 cells)). Settings: tested as described in Example 33; IC50 or EC50 for LXRα and/or LXRβ, isoform not specified; read-out: activity (IC50 or EC50 for LXR).
Assay type: cell-based, human
From the text: To measure the ability of compounds to activate or inhibit the transcriptional activity of LXR in a cell based assay, the co-transfection assay was used. It has been shown that LXR functions as a heterodimer with RXR. For the co-transfection assay, expression plasmids for LXR and RXR are introduced via transient transfection into mammalian cells along with a luciferase reporter plasmid that contains one copy of a DNA sequence that is bound by LXR-RXR heterodimers (LXRE; Willy, P. et. al. 1995). Treatment of transfected cells with an LXR agonist increases the transcriptional activity of LXR, which is measured by an increase in luciferase activity.
CV-1 African Green Monkey Kidney Cells Co-transfection expression plasmids, comprising full-length LXRα (pCMX-h LXRα, LXRβ (pCMX-hLXRβ), or RXRα (pCMX-RXR), reporter plasmid (LXREx1-Tk-Luciferase), and control (pCMX-Galactosidase expression vector) (Willey et al. Genes & Development 9 1033-1045 (1995)). Transfection reagent such as FuGENE6 (Roche). 1× Cell lysis buffer (1% Triton X 100 (J T Baker X200-07), 10% Glycerol (J T Baker M778-07), 5 mM Ditriotreitol (Quantum Bioprobe DTT03; add fresh before lysing), 1 mM EGTA (Ethylene Glycol-bis(B-Amino ethyl ether)-N,N,N′,N′-Tetracetic Acid) (Sigma E-4378), 25 mM Tricine (ICN 807420) pH 7.8) 1× Luciferase assay buffer (pH at 7.8) (0.73 mM ATP, 22.3 mM Tricine, 0.11 mM EDTA, 33.3 mM DTT) 1× Luciferrin/CoA (11 mM Luciferin, 3.05 mM Coenzyme A, 10 mM HEPES)
CV-1 cells were prepared 24 hours prior to the experiment by plating them into T-175 flasks or 500 cm^2 dishes in order to achieve 70-80% confluency on the day of the transfection. The number of cells to be transfected was determined by the number of plates to be screened. Each 384 well plate requires 1.92×10^6 cells or 5000 cells per well. DNA Transfection Reagent was prepared by mixing the required plasmid DNAs with a cationic lipid transfection reagent FuGENE6 (Roche) by following the instructions provided with the reagents. Optimal DNA amounts were determined empirically per cell line and size of vessel to be transfected. 10-12 mL of media was added to the DNA Transfection Reagent and this mixture was added to the cells after aspirating media from the T175 cm^2 flask. Cells were then incubated at least 5 hours at 37° C. to prepare screening cells.
Luciferase assay reagent was prepared by combining before use (per 10 mL): 10 mL 1× Luciferase assay buffer; 0.54 mL of 1× Luciferrin/CoA; 0.54 mL of 0.2 M Magnesium sulfate
Assay plates were prepared by dispensing 5 μL, of compound per well of a 384 well plate to achieve final compound concentration of 10 μM and no more than 1% DMSO. Media was removed from the screening cells, the cells trypsinized, harvested cells by centrifugation, counted, and plated at a density of approximately 5000 cells per well in the 384 well assay plate prepared above in a volume of about 45 μL. Assay plates containing both compounds and screening cells (50 μL in total volume) were incubated for 20 hours at 37° C.
After incubation with compounds, media was removed from the cells and lysis buffer (30 μL/well) added. After 30 minutes at ambient temperature, luciferase assay buffer (30 μL/well) was added and the assay plates read on a luminometer (PE Biosystems Northstar reader with on-board injectors, or equivalent). Plates were read immediately after addition of luciferase assay buffer.
The LXR/LNRE co-transfection assay can be used to establish the EC50/IC50 values for potency and percent activity or inhibition for efficacy. Efficacy defines the activity of a compound relative to a high control ((N-(3-((4-fluorophenyl)-(naphthalene-2-sulfonyl)amino)propyl)-2,2-dimethylpropionamide)) or a low control (DMSO/vehicle). The dose response curves are generated from an 8 point curve with concentrations differing by ½ LOG units. Each point represents the average of 4 wells of data from a 384 well plate. […]
With `Cc1cc(-c2cccc(S(C)(=O)=O)c2)ccc1-n1cc(C(=O)NCC(F)(F)F)nc1-c1c(Cl)cccc1Cl` [Example 85, 2-(2,6-dichlorophenyl)-1-(3-methyl-3′-(methylsulfonyl)biphenyl-4-yl)-N-(2,2,2-trifluoroethyl)-1H-imidazole-4-carboxamide] the IC50 or EC50 (potency, activation or inhibition) was < 1 µM.
With `CCN(CC)C(=O)c1cn(-c2ccc(-c3cccc(S(C)(=O)=O)c3)cc2C)c(-c2c(Cl)cccc2Cl)n1` [Example 86, 2-(2,6-dichlorophenyl)-N,N-diethyl-1-(3-methyl-3′-(methylsulfonyl)biphenyl-4-yl)-1H-imidazole-4-carboxamide] the IC50 or EC50 (potency, activation or inhibition) was < 1 µM.
For `CS(=O)(=O)c1cccc(-c2ccc(-n3cc(C(=O)NCC(F)(F)F)nc3-c3c(Cl)cccc3Cl)cc2)c1` [Example 87, 2-(2,6-dichlorophenyl)-1-(3′-(methyl-sulfonyl)biphenyl-4-yl)-4-(2,2,2-trifluoroethyl)-1H-imidazole-4-carboxamide], the IC50 or EC50 (potency, activation or inhibition) was < 1 µM.
`CS(=O)(=O)c1cccc(-c2ccc(-n3cc(C(=O)NCCF)nc3-c3c(Cl)cccc3Cl)cc2)c1` [Example 88, 2-(2,6-dichlorophenyl)-N-(2-fluoroethyl)-1-(3′-(methyl-sulfonyl)biphenyl-4-yl)-1H-imidazole-4-carboxamide] was tested, and the IC50 or EC50 (potency, activation or inhibition) was < 1 µM.
In the case of `Cc1cc(-c2cccc(S(C)(=O)=O)c2)ccc1-n1cc(C(=O)NCC(F)(F)F)nc1-c1ccccc1C(C)C` [Example 89], the IC50 or EC50 (potency, activation or inhibition) is reported as < 1 µM.
With `CN(C)c1cccc(F)c1-c1nc(C(C)(C)O)cn1-c1ccc(-c2cccc(S(C)(=O)=O)c2)cc1` [Example 90, 2-(2-(2-(dimethylamino)-6-fluoro-phenyl)-1-(3′-(methylsulfonyl)biphenyl-4-yl)-1H-imidazol-4-yl)propan-2-ol] the IC50 or EC50 (potency, activation or inhibition) was < 1 µM.
In the case of `CCS(=O)(=O)c1cccc(-c2ccc(-n3cc(C(C)(C)O)nc3-c3c(Cl)cccc3Cl)cc2)c1` [Example 91, 2-(2-(2,6-dichlorophenyl)-1-(3′-(ethylsulfonyl)biphenyl-4-yl)-1H-imidazol-4-yl)propan-2-ol], the IC50 or EC50 (potency, activation or inhibition) is reported as 1 to 10 µM.
Molecule `CCS(=O)(=O)c1cccc(-c2ccc(-n3cc(C(C)(C)O)nc3-c3c(F)cccc3Cl)cc2)c1` [Example 92, 2-(2-(2-chloro-6-fluorophenyl)-1-(3′-(ethylsulfonyl)biphenyl-4-yl)-1H-imidazol-4-yl)propan-2-ol] has an IC50 or EC50 (potency, activation or inhibition) of 1 to 10 µM.
In the case of `CCc1ccccc1-c1nc(C(C)(C)O)cn1-c1ccc(-c2cccc(S(C)(=O)=O)c2)cc1` [Example 93], the IC50 or EC50 (potency, activation or inhibition) is reported as < 1 µM.
In the case of `CC(C)c1ccccc1-c1nc(C(C)(C)O)cn1-c1ccc(-c2cccc(S(C)(=O)=O)c2)cc1` [Example 94, 2-(2-(2-isopropylphenyl)-1-(3′-(methylsulfonyl)biphenyl-4-yl)-1H-imidazol-4-yl)propan-2-ol], the IC50 or EC50 (potency, activation or inhibition) is reported as < 1 µM.
With `CCS(=O)(=O)c1cccc(-c2ccc(-n3cc(C(C)(C)O)nc3-c3cccc(F)c3Cl)cc2)c1` [Example 95, 2-(2-(2-chloro-3-fluorophenyl)-1-(3′-(ethylsulfonyl)biphenyl-4-yl)-1H-imidazol-4-yl)propan-2-ol] the IC50 or EC50 (potency, activation or inhibition) was < 1 µM.
In the case of `CCS(=O)(=O)c1cccc(-c2ccc(-n3cc(C(C)(C)O)nc3-c3ccccc3C(C)C)cc2)c1` [Example 96, 2-(1-(3′-(ethylsulfonyl)biphenyl-4-yl)-2-(2-isopropylphenyl)-1H-imidazol-4-yl)propan-2-ol], the IC50 or EC50 (potency, activation or inhibition) is reported as < 1 µM.
`CCS(=O)(=O)c1cccc(-c2ccc(-n3cc(C(C)(C)O)nc3-c3c(C)cccc3Cl)cc2)c1` [Example 97, 2-(2-(2-chloro-6-methylphenyl)-1-(3′-(ethylsulfonyl)biphenyl-4-yl)-1H-imidazol-4-yl)propan-2-ol] was tested, and the IC50 or EC50 (potency, activation or inhibition) was 1 to 10 µM.
With `CC(C)(O)c1cn(-c2ccc(-c3ccc(CO)c(S(C)(=O)=O)c3)cc2)c(-c2cccc(Cl)c2Cl)n1` [Example 98, 2-(2-(2,3-dichlorophenyl)-1-(4′-(hydroxymethyl)-3′-(methyl-sulfonyl)biphenyl-4-yl)-1H-imidazol-4-yl)propan-2-ol] the IC50 or EC50 (potency, activation or inhibition) was < 1 µM.
With `CC(C)(O)c1cn(-c2ccc(-c3ccc(CO)c(S(C)(=O)=O)c3)cc2)c(-c2c(Cl)cccc2Cl)n1` [Example 99, 2-(2-(2,6-dichlorophenyl)-1-(4′-(hydroxymethyl)-3′-(methyl-sulfonyl)biphenyl-4-yl)-1H-imidazol-4-yl)propan-2-ol] the IC50 or EC50 (potency, activation or inhibition) was < 1 µM.
In the case of `CC(C)(O)c1cn(-c2ccc(-c3ccc(CO)c(S(C)(=O)=O)c3)cc2)c(-c2c(F)cccc2Cl)n1` [Example 100, 2-(2-(2-chloro-6-fluorophenyl)-1-(4′-(hydroxymethyl)-3′-(methyl-sulfonyl)biphenyl-4-yl)-1H-imidazol-4-yl)propan-2-ol], the IC50 or EC50 (potency, activation or inhibition) is reported as 1 to 10 µM.
With `Cc1c(Cl)cccc1-c1nc(C(C)(C)O)cn1-c1ccc(-c2ccc(CO)c(S(C)(=O)=O)c2)cc1` [Example 101, 2-(2-(3-chloro-2-methylphenyl)-1-(4′-(hydroxymethyl)-3′-(methyl-sulfonyl)biphenyl-4-yl)-1H-imidazol-4-yl)propan-2-ol] the IC50 or EC50 (potency, activation or inhibition) was < 1 µM.
In the case of `Cc1cccc(Cl)c1-c1nc(C(C)(C)O)cn1-c1ccc(-c2ccc(CO)c(S(C)(=O)=O)c2)cc1` [Example 102, 2-(2-(2-chloro-6-methylphenyl)-1-(4′-(hydroxymethyl)-3′-(methyl-sulfonyl)biphenyl-4-yl)-1H-imidazol-4-yl)propan-2-ol], the IC50 or EC50 (potency, activation or inhibition) is reported as < 1 µM.
`CC(C)(O)c1cn(-c2ccc(-c3ccc(CO)c(S(C)(=O)=O)c3)cc2)c(-c2c(F)cccc2F)n1` [Example 103, 2-(2-(2,6-difluorophenyl)-1-(4′-(hydroxymethyl)-3′-(methyl-sulfonyl)biphenyl-4-yl)-1H-imidazol-4-yl)propan-2-ol] gave an IC50 or EC50 (potency, activation or inhibition) of 1 to 10 µM.
With `CCS(=O)(=O)c1cccc(-c2ccc(-n3cc(C(=O)NCC(F)(F)F)nc3-c3c(Cl)cccc3Cl)c(C)c2)c1` [Example 104, 2-(2,6-dichlorophenyl)-1-(3′-(ethylsulfonyl)-3-methylbiphenyl-4-yl)-N-(2,2,2-trifluoroethyl)-1H-imidazole-4-carboxamide] the IC50 or EC50 (potency, activation or inhibition) was < 1 µM.
`CC(C)(O)c1cn(-c2ccc(-c3ccc(C(C)(C)O)c(S(C)(=O)=O)c3)cc2)c(-c2cccc(Cl)c2Cl)n1` [Example 105, 2-(2-(2,3-dichlorophenyl)-1-(4′-(2-hydroxypropan-2-yl)-3′-(methylsulfonyl)biphenyl-4-yl)-1H-imidazol-4-yl)propan-2-ol] was tested, and the IC50 or EC50 (potency, activation or inhibition) was < 1 µM.
Work on `Cc1cc(-c2ccc(-n3cc(C(C)(C)O)nc3-c3c(Cl)cccc3Cl)cc2)cc(S(C)(=O)=O)c1` [Example 106, 2-(2-(2,6-dichlorophenyl)-1-(′3-methyl-5′-(methyl-sulfonyl)biphenyl-4-yl)-1H-imidazol-4-yl)propan-2-ol] yielded an IC50 or EC50 (potency, activation or inhibition) of 1 to 10 µM.
In the case of `CC(C)(O)c1cn(-c2ccc(-c3cc(S(C)(=O)=O)ccc3Cl)cc2)c(-c2c(Cl)cccc2Cl)n1` [Example 107, 2-(1-(2′-chloro-5′-(methyl-sulfonyl)biphenyl-4-yl)-2-(2,6-dichlorophenyl)-1H-imidazol-4-yl)propan-2-ol], the IC50 or EC50 (potency, activation or inhibition) is reported as < 1 µM.
For `CNS(=O)(=O)c1cccc(-c2ccc(-n3cc(C(C)(C)O)nc3-c3c(Cl)cccc3Cl)cc2)c1` [Example 108, 4′-(2-(2,6-dichlorophenyl)-4-(2-hydroxypropan-2-yl)-1H-imidazol-1-yl)-N-methylbiphenyl-3-sulfonamide], the IC50 or EC50 (potency, activation or inhibition) was < 1 µM.
